Measured values taken from patent US10975084B2, “KDM5 inhibitors” (Merck Sharp & Dohme Corp., priority 2016, dated 2021).

These compounds were tested against KDM5B (Homo sapiens (Human), UniProt Q9UGL1) (assay: KDM5B TR-FRET Enzyme Activity Assay). Settings: LANCE TR-FRET; 5 nM full-length recombinant KDM5B; ten point titration 100000 nM to 5.08 nM.
Assay type: biochemical
Method in brief: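 Full-length KDM5B from Sf21 cells (5 nM) was preincubated 30 min with compound in HEPES pH 7.3 buffer with ascorbate and 2 μM Fe(II). Reaction with 500 nM biotinylated H3K4Me3 peptide and 500 nM α-ketoglutarate ran 60 min. Product was detected by TR-FRET (Eu-anti-H3K4Me1-2/streptavidin-Dylight 650, 665/615 ratio); IC50 came from a 4-parameter fit.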

Sequence of KDM5B (Q9UGL1 whole entry): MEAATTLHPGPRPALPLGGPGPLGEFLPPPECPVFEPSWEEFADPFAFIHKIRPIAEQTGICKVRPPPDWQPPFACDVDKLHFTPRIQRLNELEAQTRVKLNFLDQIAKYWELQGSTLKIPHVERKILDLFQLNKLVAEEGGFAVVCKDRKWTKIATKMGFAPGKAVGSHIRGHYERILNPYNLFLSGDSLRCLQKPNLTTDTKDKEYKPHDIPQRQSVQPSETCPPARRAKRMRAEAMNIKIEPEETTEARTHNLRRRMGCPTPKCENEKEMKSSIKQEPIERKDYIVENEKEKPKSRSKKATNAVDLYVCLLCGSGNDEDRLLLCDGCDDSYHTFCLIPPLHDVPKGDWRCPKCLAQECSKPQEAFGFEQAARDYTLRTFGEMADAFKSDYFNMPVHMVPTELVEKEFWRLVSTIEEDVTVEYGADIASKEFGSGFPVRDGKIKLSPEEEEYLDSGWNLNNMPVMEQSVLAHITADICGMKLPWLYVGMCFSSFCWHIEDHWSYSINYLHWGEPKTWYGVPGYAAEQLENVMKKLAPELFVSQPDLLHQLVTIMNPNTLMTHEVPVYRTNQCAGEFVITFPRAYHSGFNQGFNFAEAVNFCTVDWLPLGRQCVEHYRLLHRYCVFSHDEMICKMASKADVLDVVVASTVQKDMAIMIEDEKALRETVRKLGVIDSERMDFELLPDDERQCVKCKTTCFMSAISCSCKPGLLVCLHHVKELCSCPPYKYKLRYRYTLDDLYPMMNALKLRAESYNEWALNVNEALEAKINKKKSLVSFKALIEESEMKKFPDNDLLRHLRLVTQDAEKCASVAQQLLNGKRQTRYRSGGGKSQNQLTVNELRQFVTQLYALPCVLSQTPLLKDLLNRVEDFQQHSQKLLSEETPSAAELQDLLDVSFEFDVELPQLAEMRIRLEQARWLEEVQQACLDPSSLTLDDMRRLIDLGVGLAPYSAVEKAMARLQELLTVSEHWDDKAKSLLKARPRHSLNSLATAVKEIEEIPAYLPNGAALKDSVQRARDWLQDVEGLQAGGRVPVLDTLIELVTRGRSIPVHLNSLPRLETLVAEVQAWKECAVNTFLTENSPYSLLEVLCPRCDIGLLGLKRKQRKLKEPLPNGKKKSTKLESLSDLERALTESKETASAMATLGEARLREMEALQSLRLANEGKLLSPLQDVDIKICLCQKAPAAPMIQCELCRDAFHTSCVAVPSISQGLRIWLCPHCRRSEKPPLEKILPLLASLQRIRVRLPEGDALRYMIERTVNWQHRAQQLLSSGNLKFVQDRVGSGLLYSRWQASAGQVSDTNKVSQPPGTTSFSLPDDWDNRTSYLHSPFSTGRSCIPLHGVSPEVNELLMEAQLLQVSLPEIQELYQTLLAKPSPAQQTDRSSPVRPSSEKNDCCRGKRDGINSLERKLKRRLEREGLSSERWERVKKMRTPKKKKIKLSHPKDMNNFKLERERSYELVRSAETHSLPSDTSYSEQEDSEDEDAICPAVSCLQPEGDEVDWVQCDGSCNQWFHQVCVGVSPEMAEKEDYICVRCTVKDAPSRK

IC50 [nM]	SMILES
67.2	CC(C)c1c(-c2ccc(C(F)(F)F)cc2)[nH]c2ncnn2c1=O [Example 11-84, 6-(1-methylethyl)-5-[4-(trifluoromethyl)-phenyl][1,2,4]triazolo[1,5-a]pyrimidin-7(4H)-one]
41.2	CC(C)c1c(-c2cccc(C(F)(F)F)c2)[nH]c2ncnn2c1=O [Example 11-85, 6-(1-methylethyl)-5-[3-(trifluoromethyl)phenyl] [1,2,4]triazolo[1,5-a]pyrimidin-7(4H)-one]
12.6	CC(C)c1c(-c2ccc(C(=O)N(C)C)cc2)[nH]c2ncnn2c1=O [Example 11-86, N,N-dimethyl-4-[6-(1-methylethyl)-7-oxo-4,7-dihydro[1,2,4]triazolo[1,5-a]pyrimidin-5-yl]benzamide]
1220	CC(C)c1c(-c2cc(C(F)(F)F)nn2C)[nH]c2ncnn2c1=O [Example 11-87, 6-(1-methylethyl)-5-[1-methyl-3-(trifluoromethyl)-1H-pyrazol-5-yl][1,2,4]triazolo[1,5-a]pyrimidin-7(4H)-one]
8.57	CC(C)c1c(-c2ccc(-c3ccncc3)cc2)[nH]c2ncnn2c1=O [Example 11-88, 6-(1-methylethyl)-5-(4-pyridin-4-ylphenyl)[1,2,4]triazolo[1,5-a]pyrimidin-7(4H)-one]
21.3	CC(C)c1c(-c2ccc3ncn(C4CC4)c3c2)[nH]c2ncnn2c1=O [Example 11-89, 5-(1-cyclopropyl-1H-benzimidazol-6-yl)-6-(1-methylethyl)[1,2,4]triazolo[1,5-a]pyrimidin-7(4H)-one]
7.26	CC(C)c1c(-c2ccc(-c3nccn3C)cc2)[nH]c2ncnn2c1=O [Example 11-90, 6-(1-methylethyl)-5-[4-(1-methyl-1H-imidazol-2-yl)phenyl][1,2,4]triazolo[1,5-a]pyrimidin-7(4H)-one]
634	CC(C)c1c(-c2ccnn2Cc2ccccc2)[nH]c2ncnn2c1=O [Example 11-91, 5-(1-benzyl-1H-pyrazol-5-yl)-6-(1-methylethyl)[1,2,4]triazolo[1,5-a]pyrimidin-7(4H)-one]
5.29	COCC(C)(C)n1cc(-c2[nH]c3ncnn3c(=O)c2C(C)C)cn1 [Example 11-92, 5-[1-(2-methoxy-1,1-dimethylethyl)-1H-pyrazol-4-yl]-6-(1-methylethyl)[1,2,4]triazolo[1,5-a]pyrimidin-7(4H)-one]
15.5	CC(C)c1c(-c2ccc(N3CCN(C(C)C)CC3)cc2)[nH]c2ncnn2c1=O [Example 11-93, 6-(1-methylethyl)-5-{4-[4-(1-methylethyl)piperazin-1-yl]phenyl}[1,2,4]triazolo[1,5-a]pyrimidin-7(4H)-one]
20.1	CC(C)c1c(-c2ccc(N3CCCC3)cc2)[nH]c2ncnn2c1=O [Example 11-94, 6-(1-methylethyl)-5-(4-pyrrolidin-1-ylphenyl)[1,2,4]triazolo[1,5-a]pyrimidin-7(4H)-one]
8.59	CC(C)c1c(-c2ccc(-n3ccnn3)cc2)[nH]c2ncnn2c1=O [Example 11-95, 6-(1-methylethyl)-5-[4-(1H-1,2,3-triazol-1-yl)phenyl][1,2,4]triazolo[1,5-a]pyrimidin-7(4H)-one]
13.5	CC(C)c1c(-c2ccc(N3CCS(=O)(=O)CC3)cc2)[nH]c2ncnn2c1=O [Example 11-96, 5-[4-(1,1-dioxidothiomorpholin-4-yl)phenyl]-6-(1-methylethyl)[1,2,4]triazolo[1,5-a]pyrimidin-7(4H)-one]
32.4	CC(C)c1c(-c2ccc(-n3nccn3)cc2)[nH]c2ncnn2c1=O [Example 11-97, 6-(1-methylethyl)-5-[4-(2H-1,2,3-triazol-2-yl)phenyl][1,2,4]triazolo[1,5-a]pyrimidin-7(4H)-one]
122	CC(C)c1c(-c2ccc(-n3cccn3)cc2F)[nH]c2ncnn2c1=O [Example 11-98, 5-[2-fluoro-4-(1H-pyrazol-1-yl)phenyl]-6-(1-methylethyl)[1,2,4]triazolo[1,5-a]pyrimidin-7(4H)-one]
